Experiments:
[1] = system: V79; test: Increase in glutathione peroxidase activity in V79 cells at 8 mM after 24 hrs; type: cell-based; settings: Cricetulus griseus
[2] = system: V79; test: Effect on malondialdehyde level in V79 cells at 0.5 mM after 24 hrs; type: functional, Cricetulus griseus
[3] = system: V79; test: Effect on malondialdehyde level in V79 cells at 1 mM after 24 hrs; type: functional, Cricetulus griseus
[4] = system: V79; test: Effect on malondialdehyde level in V79 cells at 2 mM after 24 hrs; type: functional, Cricetulus griseus
[5] = system: V79; test: Stimulation of ROS generation in V79 cells; type: functional, cell-based; settings: Cricetulus griseus
[6] = system: V79; test: Effect on V79 cells assessed as viable cells at 2 mM; type: functional; settings: Cricetulus griseus, read-out: Activity
[7] = system: V79; test: Effect on V79 cells assessed as viable cells at 4 mM; type: functional; settings: Cricetulus griseus, read-out: Activity
[8] = system: V79; test: Effect on V79 cells assessed as apoptotic cells at 2 mM; type: functional, Cricetulus griseus
[9] = system: V79; test: Effect on V79 cells assessed as apoptotic cells at 4 mM; type: functional, Cricetulus griseus
[10] = system: V79; test: Effect on V79 cells assessed as necrotic cells at 2 mM; type: functional, Cricetulus griseus
[11] = system: V79; test: Effect on V79 cells assessed as necrotic cells at 4 mM; type: functional, Cricetulus griseus
[12] = system: V79; test: Effect on V79 cells assessed as apoptotic cells at 2 mM in presence of 30 uM alpha-tocopherol; type: functional, Cricetulus griseus
[13] = system: V79; test: Effect on V79 cells assessed as apoptotic cells at 4 mM in presence of 30 uM alpha-tocopherol; type: functional, Cricetulus griseus
[14] = system: V79; test: Effect on V79 cells assessed as viable cells at 2 mM in presence of 30 uM alpha-tocopherol; type: functional, Cricetulus griseus
[15] = system: V79; test: Effect on V79 cells assessed as viable cells at 4 mM in presence of 30 uM alpha-tocopherol; type: functional, Cricetulus griseus
[16] = system: V79; test: Effect on superoxide dismutase activity in V79 cells at 0.5 mM after 24 hrs; type: cell-based; settings: Cricetulus griseus
[17] = system: V79; test: Increase in superoxide dismutase activity in V79 cells at 1 mM after 24 hrs; type: cell-based; settings: Cricetulus griseus
[18] = system: V79; test: Increase in superoxide dismutase activity in V79 cells at 2 mM after 24 hrs; type: cell-based; settings: Cricetulus griseus
[19] = system: V79; test: Increase in superoxide dismutase activity in V79 cells at 4 mM after 24 hrs; type: cell-based; settings: Cricetulus griseus
[20] = system: V79; test: Increase in superoxide dismutase activity in V79 cells at 8 mM after 24 hrs; type: cell-based; settings: Cricetulus griseus
[21] = system: V79; test: Effect on catalase activity in V79 cells at 0.5 mM after 24 hrs; type: cell-based; settings: Cricetulus griseus
[22] = system: V79; test: Increase in catalase activity in V79 cells at 1 mM after 24 hrs; type: cell-based; settings: Cricetulus griseus
[23] = system: V79; test: Increase in catalase activity in V79 cells at 2 mM after 24 hrs; type: cell-based; settings: Cricetulus griseus
[24] = system: V79; test: Increase in catalase activity in V79 cells at 4 mM after 24 hrs; type: cell-based; settings: Cricetulus griseus
[25] = system: V79; test: Increase in catalase activity in V79 cells at 8 mM after 24 hrs; type: cell-based; settings: Cricetulus griseus
[26] = system: V79; test: Effect on glutathione peroxidase activity in V79 cells at 0.5 mM after 24 hrs; type: cell-based; settings: Cricetulus griseus
[27] = system: V79; test: Increase in glutathione peroxidase activity in V79 cells at 1 mM after 24 hrs; type: cell-based; settings: Cricetulus griseus
[28] = system: V79; test: Increase in glutathione peroxidase activity in V79 cells at 2 mM after 24 hrs; type: cell-based; settings: Cricetulus griseus
[29] = system: V79; test: Increase in glutathione peroxidase activity in V79 cells at 4 mM after 24 hrs; type: cell-based; settings: Cricetulus griseus
[30] = system: V79; test: Effect on malondialdehyde level in V79 cells at 4 mM after 24 hrs; type: functional, Cricetulus griseus
[31] = system: V79; test: Effect on malondialdehyde level in V79 cells at 8 mM after 24 hrs; type: functional, Cricetulus griseus
[32] = system: V79; test: Effect on dityrosine level in V79 cells at 0.5 mM after 24 hrs; type: functional, Cricetulus griseus
[33] = system: V79; test: Effect on dityrosine level in V79 cells at 1 mM after 24 hrs; type: functional, Cricetulus griseus
[34] = system: V79; test: Effect on dityrosine level in V79 cells at 2 mM after 24 hrs; type: functional, Cricetulus griseus
[35] = system: V79; test: Effect on dityrosine level in V79 cells at 4 mM after 24 hrs; type: functional, Cricetulus griseus
[36] = system: V79; test: Effect on dityrosine level in V79 cells at 8 mM after 24 hrs; type: functional, Cricetulus griseus
[37] = system: V79; test: Effect on 8-hydroxy-deoxyguanosine level in V79 cells at 0.5 mM after 24 hrs; type: functional, Cricetulus griseus
[38] = system: V79; test: Effect on 8-hydroxy-deoxyguanosine level in V79 cells at 1 mM after 24 hrs; type: functional, Cricetulus griseus
[39] = system: V79; test: Effect on 8-hydroxy-deoxyguanosine level in V79 cells at 2 mM after 24 hrs; type: functional, Cricetulus griseus
[40] = system: V79; test: Effect on 8-hydroxy-deoxyguanosine level in V79 cells at 4 mM after 24 hrs; type: functional, Cricetulus griseus
[41] = system: V79; test: Effect on 8-hydroxy-deoxyguanosine level in V79 cells at 8 mM after 24 hrs; type: functional, Cricetulus griseus
[42] = system: V79; test: Effect on glutathione peroxidase activity in V79 cells at 8 mM after 24 hrs in presence of 30 uM alpha-tocopherol; type: cell-based; settings: Cricetulus griseus
[43] = system: V79; test: Effect on superoxide dismutase activity in V79 cells at 8 mM after 24 hrs in presence of 30 uM alpha-tocopherol; type: cell-based; settings: Cricetulus griseus
[44] = system: V79; test: Effect on catalase activity in V79 cells at 8 mM after 24 hrs in presence of 30uM alpha-tocopherol; type: cell-based; settings: Cricetulus griseus
[45] = system: V79; test: Effect on malondialdehyde level in V79 cells at 8 mM after 24 hrs in presence of 30 uM alpha-tocopherol; type: functional, Cricetulus griseus
[46] = system: V79; test: Effect on dityrosine level in V79 cells at 8 mM after 24 hrs in presence of 30 uM alpha-tocopherol; type: functional, Cricetulus griseus
[47] = system: V79; test: Effect on 8-hydroxy-deoxyguanosine level in V79 cells at 8 mM after 24 hrs in presence of 30 uM alpha-tocopherol; type: functional, Cricetulus griseus
[48] = system: V79; test: Effect on glutathione peroxidase activity in V79 cells at 30 uM after 24 hrs; type: cell-based; settings: Cricetulus griseus
[49] = system: V79; test: Effect on superoxide dismutase activity in V79 cells at 30 uM after 24 hrs; type: cell-based; settings: Cricetulus griseus
[50] = system: V79; test: Effect on catalase activity in V79 cells at 30 uM after 24 hrs; type: cell-based; settings: Cricetulus griseus
[51] = system: V79; test: Effect on malondialdehyde level in V79 cells at 30 uM after 24 hrs; type: functional, Cricetulus griseus
[52] = system: V79; test: Effect on dityrosine level in V79 cells at 30 uM after 24 hrs; type: functional, Cricetulus griseus
[53] = system: V79; test: Effect on 8-hydroxy-deoxyguanosine level in V79 cells at 30 uM after 24 hrs; type: functional, Cricetulus griseus
[54] = Cytotoxicity against V79 cells assessed as viability at 8 mM after 24 hrs by MTT assay; type: cell-based, Cricetulus griseus; settings: chinese hamster, read-out: Activity

## Cc1ccc2c(c1)Sc1cc(C)ccc1OCC(=O)NCCNCCNC(=O)CO2
[1]
  Activity: 47.6 nmol/min/mg
[2]
  Activity: 11.17 nM/mg
[3]
  Activity: 13.77 nM/mg
[4]
  Activity: 21.46 nM/mg
[5]
  Activity: Dose-dependent effect
[6]
  viability at 2000 µM: 71.4%
[7]
  viability at 4000 µM: 58.2%
[8]
  Activity: 25.1%
[9]
  Activity: 37.3%
[10]
  Activity: 2.6%
[11]
  Activity: 4.1%
[12]
  Activity: 17.4%
[13]
  Activity: 22.6%
[14]
  Activity: 80.5%
[15]
  Activity: 69.1%
[16]
  Activity: 18.8 U/mg
[17]
  Activity: 21.3 U/mg
[18]
  Activity: 31.2 U/mg
[19]
  Activity: 40.1 U/mg
[20]
  Activity: 49.2 U/mg
[21]
  Activity (microM/min/mg): 5.48
[22]
  Activity (microM/min/mg): 8.47
[23]
  Activity (microM/min/mg): 12.2
[24]
  Activity (microM/min/mg): 22.4
[25]
  Activity (microM/min/mg): 27.2
[26]
  Activity: 18.6 nmol/min/mg
[27]
  Activity: 23.3 nmol/min/mg
[28]
  Activity: 30.6 nmol/min/mg
[29]
  Activity: 37.5 nmol/min/mg
[30]
  Activity: 35.691 nM/mg
[31]
  Activity: 52.55 nM/mg
[32]
  Activity: 0.74 nM/mg
[33]
  Activity: 1.19 nM/mg
[34]
  Activity: 2.45 nM/mg
[35]
  Activity: 4.31 nM/mg
[36]
  Activity: 8.27 nM/mg
[37]
  Activity: 4.4
[38]
  Activity: 5
[39]
  Activity: 5.8
[40]
  Activity: 7.3
[41]
  Activity: 6.9
[42]
  Activity: 20.8 nmol/min/mg
[43]
  Activity: 21.8 U/mg
[44]
  Activity (microM/min/mg): 8.77
[45]
  Activity: 15.01 nM/mg
[46]
  Activity: 1.43 nM/mg
[47]
  Activity: 5.76

## Cc1c(C)c2c(c(C)c1O)CC[C@@](C)(CCC[C@H](C)CCC[C@H](C)CCCC(C)C)O2 [ALPHA-TOCOPHEROL]
[48]
  Activity: 14.1 nmol/min/mg
[49]
  Activity: 13.2 U/mg
[50]
  Activity (microM/min/mg): 4.5
[51]
  Activity: 7.51 nM/mg
[52]
  Activity: 0.42 nM/mg
[53]
  Activity: 3.51

## Cc1ccc2c(c1)[S+]([O-])c1cc(C)ccc1OCC(=O)NCCNCCNC(=O)CO2
[1]
  Activity: 41.1 nmol/min/mg
[2]
  Activity: 8.72 nM/mg
[3]
  Activity: 16.53 nM/mg
[4]
  Activity: 25.16 nM/mg
[54]
  viability at 24 h, 8000 µM: 24%
[5]
  Activity: Dose-dependent effect
[6]
  viability at 2000 µM: 54.4%
[7]
  viability at 4000 µM: 41.2%
[8]
  Activity: 40.2%
[9]
  Activity: 51.4%
[10]
  Activity: 4.6%
[11]
  Activity: 6.3%
[12]
  Activity: 28.5%
[13]
  Activity: 32.7%
[14]
  Activity: 71.2%
[15]
  Activity: 52.6%
[16]
  Activity: 14.4 U/mg
[17]
  Activity: 22.1 U/mg
[18]
  Activity: 36.4 U/mg
[19]
  Activity: 48.7 U/mg
[20]
  Activity: 56.4 U/mg
[21]
  Activity (microM/min/mg): 6.81
[22]
  Activity (microM/min/mg): 9.71
[23]
  Activity (microM/min/mg): 15.3
[24]
  Activity (microM/min/mg): 27.2
[25]
  Activity (microM/min/mg): 35.7
[26]
  Activity: 16.6 nmol/min/mg
[27]
  Activity: 22.1 nmol/min/mg
[28]
  Activity: 26.3 nmol/min/mg
[29]
  Activity: 33.4 nmol/min/mg
[30]
  Activity: 36.63 nM/mg
[31]
  Activity: 55.12 nM/mg
[32]
  Activity: 0.54 nM/mg
[33]
  Activity: 0.75 nM/mg
[34]
  Activity: 1.61 nM/mg
[35]
  Activity: 3.88 nM/mg
[36]
  Activity: 6.41 nM/mg
[37]
  Activity: 4.7
[38]
  Activity: 5.5
[39]
  Activity: 7.4
[40]
  Activity: 8.5
[41]
  Activity: 9.1
[42]
  Activity: 22.4 nmol/min/mg
[43]
  Activity: 23.5 U/mg
[44]
  Activity (microM/min/mg): 10.2
[45]
  Activity: 17.63 nM/mg
[46]
  Activity: 2.21 nM/mg
[47]
  Activity: 6.4

— ChEMBL document CHEMBL1143041, “On the cytotoxicity and status of oxidative stress of two novel synthesized tri-aza macrocyclic diamides as studied in the V79 cell lines” (Bioorg Med Chem, 2007)
